Laboratory results taken from the supplement of paper PMC10307832.

Columns and labels:
Assay in all cases: relative viability (nuclei count vs DMSO), 5 days (fraction); higher = more cells survive
XAV939 = compound: Oc1nc(-c2ccc(C(F)(F)F)cc2)nc2c1CSCC2 [XAV939]
In short: (§1)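 In 1536-well plates, lung cancer cell lines rested overnight at 37 °C before five library-drug doses (not always all listed), √10 apart, were pinned onto vehicle-anchored plates. Nuclei were counted with MetaXpress from 4× Hoechst images taken after 5 days without medium change. Viability compares treated-well with vehicle-well nuclei as a median over plates, and plates needed control CV below 25% plus at least one doubling to pass.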

C-75 = compound: CCCCCCCC[C@H]1[C@@H](C(=C)C(=O)O1)C(=O)O [C-75]
In short: as §1

AZD7762 = compound: NC(=O)Nc1cc(-c2cccc(F)c2)sc1C(=O)N[C@H]1CCCNC1 [AZD7762]
In short: as §1

[1] = compound: O=C(O)c1ccc(-c2c[nH]c3ncc(-c4ccccc4)cc23)cc1C1CCCC1
In short: as §1

Navitoclax = compound: CC1(C)CCC(c2ccc(Cl)cc2)=C(CN2CCN(c3ccc(C(=O)NS(=O)(=O)c4ccc(N[C@H](CCN5CCOCC5)CSc5ccccc5)c(S(=O)(=O)C(F)(F)F)c4)cc3)CC2)C1 [Navitoclax]
In short: as §1

| Cell Line | relative viability (XAV939; 0.08 µM) | relative viability (XAV939; 0.253 µM) | relative viability (XAV939; 0.8 µM) | relative viability (XAV939; 2.53 µM) | relative viability (C-75; 0.08 µM) | relative viability (C-75; 0.253 µM) | relative viability (C-75; 0.8 µM) | relative viability (C-75; 2.53 µM) | relative viability (C-75; 8 µM) | relative viability (AZD7762; 0.01 µM) | relative viability (AZD7762; 0.03162 µM) | relative viability (AZD7762; 0.1 µM) | relative viability (AZD7762; 0.2 µM, anchor plate) | relative viability (AZD7762; 0.3162 µM) | relative viability (AZD7762; 1 µM) | relative viability ([1]; 0.04 µM) | relative viability ([1]; 0.1265 µM) | relative viability ([1]; 0.4 µM) | relative viability ([1]; 1.265 µM) | relative viability (Navitoclax; 0.005 µM) | relative viability (Navitoclax; 0.01581 µM) | relative viability (Navitoclax; 0.05 µM) | relative viability (Navitoclax; 0.1581 µM) | relative viability (Navitoclax; 0.5 µM) | relative viability (Navitoclax; 0.5 µM, anchor plate) |
| --- | --- | --- | --- | --- | --- | --- | --- | --- | --- | --- | --- | --- | --- | --- | --- | --- | --- | --- | --- | --- | --- | --- | --- | --- | --- |
| HCC-15 | 1.14 | 0.932 | 0.96 | 0.971 | 1 | 0.965 | 0.968 | 0.798 | 0.925 | 1.02 | 0.907 | 1.02 | 1.24 | 0.969 | 1.03 | 1.03 | 1.07 | 0.965 | 0.586 | 0.986 | 1.14 | 0.838 | 0.99 | 0.947 | 0.696 |
| NCI-H1975 | 0.87 | 0.705 | 0.78 | 0.742 | 0.999 | 0.827 | 0.85 | 0.884 | 0.931 | 0.957 | 0.927 | 0.938 | 0.761 | 0.791 | 0.575 | 0.952 | 1.09 | 0.965 | 0.975 | 0.927 | 1.06 | 1.03 | 0.824 | 0.99 | 1.12 |
| HOP-62 | 1.13 | 0.996 | 0.891 | 0.893 | 1.02 | 1.01 | 1.01 | 0.891 | 1.02 | 1.04 | 0.999 | 1.17 | 0.639 | 1.02 | 0.939 | 1.08 | 1.07 | 0.964 | 0.923 | 0.966 | 1.06 | 0.968 | 0.926 | 1.03 | 1 |
| IA-LM | 0.937 | 0.864 | 0.935 | 0.701 | 0.917 | 1.14 | 0.87 | 0.676 | 0.853 | 1.12 | 1.02 | 1.15 |  | 1.01 | 0.708 | 0.921 | 1.1 | 1.07 | 0.887 | 0.941 | 1.07 | 0.915 | 1 | 0.977 | 0.755 |
| NCI-H1563 | 0.978 | 0.987 | 0.822 | 0.698 | 1.06 | 1.06 | 0.884 | 0.92 | 1.08 | 1.02 | 1.01 | 0.993 |  | 1.05 | 0.914 | 1.07 | 1.03 | 0.958 | 1.01 | 0.973 | 1.04 | 0.9 | 1.04 | 1.28 |  |
| NCI-H647 | 1.02 | 0.845 | 0.918 | 0.866 | 0.919 | 0.996 | 0.74 | 0.915 | 0.78 | 1.04 | 1.14 | 0.923 | 0.505 | 0.616 | 0.194 | 0.975 | 1.03 | 0.908 | 0.709 | 0.859 | 1.04 | 1.13 | 0.871 | 0.881 | 1.12 |
